Laboratory results published in patent US11440916B2, “Selective A2A receptor antagonist” (InxMed (Nanjing) Co., Ltd., priority 2018, dated 2022).
Entries after “also recorded” stand apart in the source; their conditions may differ. Read-outs that look alike come from different tables or passages of the source.

What was measured:
[1] = tested on: B16-F10 cells; test: Mouse melanoma lung metastasis model, oral HZ10126; format: in vivo, mice
Description: 4.1 Establishment of a Mouse Melanoma Model (6×10^4 Cells/Mouse)
5-week old C58BL/6N mice, half male and half female, were divided into 4 groups, with 10 mice per group. B16-F10 cells were digested and centrifuged, re-suspended in physiological saline and washed once. The cells were counted and adjusted to a cell density of 30×10^4 cells/ml in a volume of 12 ml. 200 μl of the cell suspension was injected into the tail vain of each mouse (Day 1), and the body weight of mice was recorded once every 3 days. On Day 18, the mice were all sacrificed, lungs were removed, and metastasis tumors were counted and weighed. Livers, kidneys and spleens were taken for HE staining to evaluate the toxicity of the drug. The lungs were subjected to immunohistochemistry and stained for CD11b, F4/80 and CD8.
Test drug: HZ10126. 2 mg HZ10126 was dissolved in 80 μl DMSO first, and the resultant solution, while being vortexed, was added dropwise to 10 ml 50% PEG-400 to prepare a 0.2 mg/ml solution.
For the test groups, the HZ10126 solution was intragastrically administered at a dose of 2 mg HZ10126/kg/day. For the control group, an equivalent volume of 50% PGE-400 was administered. From the day of injection of cells, the drug was administered once a day for 18 consecutive days.

[2] = target: A2A receptor (Homo sapiens, UniProt P29274); test: biochemical
[3] = Oral bioavailability, AUC, half-life, plasma, brain and liver concentration in mice at 2 mg/kg; format: in vivo; details: for AUC(0-t) / half-life / bioavailability: plasma; for bioavailability: read-out: Absolute bioavailability (oral); for Plasma concentration 4 and 6 hours after oral administration: time point not stated
Description: HZ10126 and other test compounds were each administered to mice at a dose of 2 mg/kg, and the bioavailability, AUC, plasma concentration, level of brain penetration (i.e. brain concentration) and liver concentration after the oral administration were measured and shown in Table 1. The measurement methods are well known to a person skilled in the art.

[4] = reference [2]; cited from earlier work
[5] = cited from earlier work
[6] = 2 mg/kg oral, 1 h post administration
[7] = 2 mg/kg, 4 h after oral administration
[8] = 2 mg/kg, 6 h after oral administration

Structure (SMILES) | IC50 [2] [nM] | AUC(0-t) ([3]; mouse, 2 mg/kg, oral) [ng·h/mL] | half-life ([3]; mouse, 2 mg/kg, oral) [h] | bioavailability ([3]; mouse, 2 mg/kg, oral) [%] | Plasma concentration 4 and 6 hours after oral administration ([3]; 2 mg/kg) | also measured
Nc1nc2c(cnn2CCN2CCN(c3ccc(C(=O)O)cc3)CC2)c2nc(-c3ccco3)nn12 [HZ10168] | 1.2 | 93.9 ± 40.8 |  |  | 4.50 ± 2.53 ng/mL | 
CCOC(=O)c1ccc(CCn2ncc3c2nc(N)n2nc(-c4ccco4)nc32)cc1 [HZ10328] |  | 233 ± 73.5 | 3.03 |  |  | Plasma concentration after oral administration [3, 7]: 4 h: 24.0 ± 8.02 ng/ml
Nc1nc2c(cnn2CCc2ccc(CO)cc2)c2nc(-c3ccco3)nn12 [HZ10330] |  |  |  | 0 | Not detected from 1 h after oral administration | Absolute bioavailability (oral) ([3]; 2 mg/kg, oral): does not lead to detectable bioavailability
COCCOc1ccc(N2CCN(CCn3ncc4c3nc(N)n3nc(-c5ccco5)nc43)CC2)cc1 [Preladenant, reference compound] | 2.5 | 285 ± 113 |  |  |  | half-life [4]: 2.1 h; Plasma concentration after oral administration [3, 8]: 6 h: 6.20 ± 7.27 ng/ml
Nc1nc2c(cnn2CCc2ccccc2)c2nc(-c3ccco3)nn12 [SCH 58261] |  |  |  | ~0 | No significant meaningful concentration | half-life ([5]; after intravenous injection, reference [1]): *26.7 min; Oral bioavailability ([5]; after oral administration): barely any oral bioavailability; also recorded: barely has any bioavailability; Brain concentration ([5]; intraperitoneal injection): very low brain concentration; Plasma concentration ([5]; intraperitoneal injection): relatively high plasma concentration; Half-life in the blood ([5]; rats, after intravenous injection): 0.445 h

Further lines, with some results ahead:

IC50 [2] [nM] | AUC(0-t) ([3]; mouse, 2 mg/kg, oral) [ng·h/mL] | half-life ([3]; mouse, 2 mg/kg, oral) [h] | bioavailability ([3]; mouse, 2 mg/kg, oral) [%] | Plasma concentration 4 and 6 hours after oral administration ([3]; 2 mg/kg) | Structure (SMILES) | also measured
1.8 | 371 ± 62.9 | 4 to 5 | 13.4 |  | Nc1nc2c(cnn2CCc2ccc(C(=O)O)cc2)c2nc(-c3ccco3)nn12 [HZ10126] | Metastases on the lungs versus control group ([1]; Day 18, 2 mg/kg/day intragastric, once a day for 18 days): obviously less than those in the control group; Inhibitory effect on tumor / tumor metastasis ([1]; mice, oral 2 mg/kg/day): excellent effect of suppressing tumor metastasis; also recorded: excellent inhibitory effect; Liver concentration/Plasma concentration [3, 6]: 7; Liver concentration/Plasma concentration ([3]; 2 mg/kg oral, 6 h post administration): 24; Plasma concentration after oral administration [3, 7]: 52.0 ± 7.03 ng/mL; Plasma concentration after oral administration [3, 8]: 28.9 ± 9.79 ng/mL; Brain penetration ([3]; 2 mg/kg, oral): no detectable brain concentration; also recorded: No penetration; Kp at 1 h ([3]; mouse, liver/plasma, 2 mg/kg oral, 1 h post administration): 7; Kp at 6 h ([3]; mouse, liver/plasma, 2 mg/kg oral, 6 h post administration): 24
1.1 | 7.42 ± 5.66 | < 0.5 | 0.73 | 2.57 ± 0.10 ng/mL | Nc1nc2c(cnn2CCc2ccc(OCC(=O)O)cc2)c2nc(-c3ccco3)nn12 [HZ10136] | Liver concentration/Plasma concentration [3, 6]: 1 h post administration: 2.3; Brain penetration ([3]; 2 mg/kg, oral): No penetration
